Experimental data reported in US8017350B2, “Glimepiride- and insulin-induced glycosylphosphatidylinositol-specific phospholipase C regulation” (Sanofi-Aventis Deutschland GmbH, priority 2004, dated 2011).

What was measured:
[1] = system: glucose transport, rat adipocytes; assay: Glucose transport in rat adipocytes; type: cell-based; details: GPI-2350 50 μM
Method: Glucose transport was determined as described in “Müller, G. et al., (1994) J. Cell Biol. 126: 1267-1276” by incubation of 10,000-20,000 washed adipocytes with 2-deoxy-D[2,6-^3H]glucose at 50 μM final conc. (0.33 μCi/ml) in 50-μl portions for 20 min at 37° C. in the absence or presence of 20 μM cytochalasin B.
Subsequently, we studied whether the differential effects of GPI-PLC inhibition on IRS-1 tyrosine phosphorylation in response to insulin and glimepiride is reflected in their metabolic activity in insulin target cells. For this, isolated rat adipocytes were pretreated with GPI-2350 prior to challenge with either stimulus, and then assayed for glucose transport and isoproterenol-induced lipolysis (FIG. 8). […] These differential effects of GPI-PLC inhibition were confirmed by analysis of the effect of GPI-2350 on the inhibition of isoproterenol-induced lipolysis by glimepiride and insulin when measured as release of NBD-FA instead of glycerol from rat adipocytes prelabeled with this fluorescent fatty acid derivative (FIG. 9).
Table 3: Isolated rat adipocytes were incubated in the presence of methyl-β-cyclodextrin (m-β-CD, 10 mM, 50 min), CBDP (300 μM, electroporation, followed by washing and subsequent incubation for 30 min), PIG41 (10 μM, 15 min), sodium orthovanadate (1 mM, 15 min), trypsin (10 μg/ml, 15 min followed by treatment with 0.5 M NaCl and subsequent washing) and N-ethylmaleimide (1 mM, 5 min followed by addition of DTT). After addition of GPI-2350 (50 μM final conc.) to one half of the adipocyte suspension and further incubation (60 min, 37° C.), portions of the cells were assayed for 5′-Nuc activity in the isolated IcDIGs. The increase in 5′-Nuc during the basal incubation was set at 100 arb. units. Other portions of the cells (after 15 min incubation) were assayed for glucose transport which was set at 100 arb. units for the basal incubation. Means+SD of at least 3 independent cell incubations with activity measurements in triplicate each are given.
FIG. 8: Effect of GPI-2350 on the glimepiride/insulin-induced metabolic activity. Isolated rat adipocytes were treated (5 min, 37° C.) without or with GPI-2350 (Panel A, 50 μM; Panel B, increasing conc.; Panel C, 5 μM, 50 μM) and then incubated (15 min, 37° C.) in the absence or presence of insulin (Ins, 10 nM) or glimepiride (Gli, 20 μM or increasing conc.) as indicated. The adipocytes were then assayed for glucose transport and isoproterenol-induced lipolysis. The activity is given relative to the absence of GPI-2350 in the control reaction (Panels A, basal) or in the insulin- and glimepiride-stimulated state (Panels B and C, set at 100). Means+SD of at least 5 independent cell incubations with activity measurements in triplicate each are given.

[2] = system: pp59Lyn and IRS-1 in isolated rat adipocytes; assay: tyrosine phosphorylation of pp59Lyn and IRS-1; type: cell-based
Method: Polypeptides separated by SDS-PAGE were transferred to polyvinylidene difluoride membranes using the semidry procedure as described in “Müller, G. et al., (2001) Mol. Cell. Biol. 21: 4553-4567”. Washed membranes were incubated with anti-caveolin-1 (1:2000), anti-pp59^Lyn (1:1250), anti-aP (1:500), anti-5′-Nuc (1:750) and anti-IRS-1 (1:2000) antibodies for 4 h at 15° C. Washed membranes were incubated with horseradish peroxidase-coupled secondary goat anti-mouse (1:2000) or goat anti-rabbit IgG (1:4000) antibodies. Labeled proteins were visualized by enhanced chemiluminescence.
FIG. 7: Effect of GPI-2350 on the glimepiride/insulin-induced activation of signaling proteins. Isolated rat adipocytes were treated (5 min, 37° C.) without or with GPI-2350 (Panels A, 50 μM; Panels B, increasing conc.) and then incubated (120 min, 37° C.) in the absence or presence of insulin (10 nM) or glimepiride (20 μM). IRS-1 and pp59^Lyn were immunoprecipitated from the defatted postnuclear infranatant (see Materials and Methods) and solubilized combined hc/lcDIGs, respectively, and then immunoblotted for phosphotyrosine. […]

## CCCCCCCCCCCCP1(=O)O[C@@H]2[C@H](O)[C@@H](O)[C@H](O)[C@@H](O)[C@@H]2O1 (stereo partly drawn) [GPI-2350, myo-inositol-1,2-cyclo-dodecylphosphonic acid]
[1]
  glimepiride-stimulated glucose transport with GPI-2350: to lower than control values
[2]
  effect on insulin-induced tyrosine phosphorylation of IRS-1: only marginally reduced
[2]; 50 μM
  effect on tyrosine phosphorylation of pp59Lyn and IRS-1 in response to glimepiride: almost complete blockade
